Results on 3 compounds are retold here after ChEMBL document CHEMBL5465560, “Selectivity Literature for EUbOPEN Chemogenomic Library” (2024).

Test [1] concerns the target Mitogen-activated protein kinase 9 (Homo sapiens, UniProt P45984). Description: Selectivity interaction (ActivX KiNativ screen (kinase selectivity in THP-1 cell lysates)) EUB0000639a MAPK9. It counts as subcellular. Conditions: lysate, at 0.01 µM.
Test [2] has as its target T1, Cyclin-G-associated kinase (Homo sapiens) (UniProt O14976).
T1 sequence (whole entry): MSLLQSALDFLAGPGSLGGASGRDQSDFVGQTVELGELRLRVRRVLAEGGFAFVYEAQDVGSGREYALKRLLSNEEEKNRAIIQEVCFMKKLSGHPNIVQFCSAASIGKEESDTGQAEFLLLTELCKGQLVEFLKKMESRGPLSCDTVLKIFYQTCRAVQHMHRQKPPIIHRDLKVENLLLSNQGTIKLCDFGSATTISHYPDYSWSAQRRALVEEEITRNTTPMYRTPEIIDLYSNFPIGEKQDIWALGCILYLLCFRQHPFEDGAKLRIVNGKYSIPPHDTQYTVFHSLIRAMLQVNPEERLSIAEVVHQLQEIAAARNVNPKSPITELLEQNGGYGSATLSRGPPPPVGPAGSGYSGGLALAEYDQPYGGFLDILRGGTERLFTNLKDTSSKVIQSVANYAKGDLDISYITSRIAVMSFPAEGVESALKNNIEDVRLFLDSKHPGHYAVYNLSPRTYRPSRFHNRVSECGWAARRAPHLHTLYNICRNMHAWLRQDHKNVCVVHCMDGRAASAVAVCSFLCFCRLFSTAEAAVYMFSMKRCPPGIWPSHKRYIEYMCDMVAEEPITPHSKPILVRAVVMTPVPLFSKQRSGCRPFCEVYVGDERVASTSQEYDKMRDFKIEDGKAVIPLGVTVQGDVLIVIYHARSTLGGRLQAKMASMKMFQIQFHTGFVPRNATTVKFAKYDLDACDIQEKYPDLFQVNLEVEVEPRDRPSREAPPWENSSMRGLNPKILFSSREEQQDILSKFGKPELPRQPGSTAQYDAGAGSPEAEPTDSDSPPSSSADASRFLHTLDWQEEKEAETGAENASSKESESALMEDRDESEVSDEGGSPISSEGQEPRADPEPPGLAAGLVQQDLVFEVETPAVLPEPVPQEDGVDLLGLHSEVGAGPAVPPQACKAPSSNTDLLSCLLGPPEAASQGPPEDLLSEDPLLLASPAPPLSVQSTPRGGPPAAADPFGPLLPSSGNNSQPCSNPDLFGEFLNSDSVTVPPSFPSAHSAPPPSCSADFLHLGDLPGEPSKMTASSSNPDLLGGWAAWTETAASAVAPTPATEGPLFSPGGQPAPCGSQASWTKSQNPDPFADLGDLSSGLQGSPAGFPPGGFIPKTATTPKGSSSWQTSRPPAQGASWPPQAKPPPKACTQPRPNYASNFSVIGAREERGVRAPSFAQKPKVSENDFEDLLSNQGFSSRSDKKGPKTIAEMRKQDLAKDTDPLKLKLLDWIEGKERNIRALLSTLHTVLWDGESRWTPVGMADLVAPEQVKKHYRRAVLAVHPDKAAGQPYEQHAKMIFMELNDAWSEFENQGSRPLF
Kind of test: Selectivity interaction (Ambit KINOMEscan and KiNATiv profiling in Jurkat cells) EUB0000090b GAK. The settings on record: at 1 µM. It counts as cell-based.

Test [3] concerns the target T2, Phosphatidylinositol 3-kinase C2 domain-containing subunit gamma (Homo sapiens) (UniProt O75747).
T2 sequence (whole entry): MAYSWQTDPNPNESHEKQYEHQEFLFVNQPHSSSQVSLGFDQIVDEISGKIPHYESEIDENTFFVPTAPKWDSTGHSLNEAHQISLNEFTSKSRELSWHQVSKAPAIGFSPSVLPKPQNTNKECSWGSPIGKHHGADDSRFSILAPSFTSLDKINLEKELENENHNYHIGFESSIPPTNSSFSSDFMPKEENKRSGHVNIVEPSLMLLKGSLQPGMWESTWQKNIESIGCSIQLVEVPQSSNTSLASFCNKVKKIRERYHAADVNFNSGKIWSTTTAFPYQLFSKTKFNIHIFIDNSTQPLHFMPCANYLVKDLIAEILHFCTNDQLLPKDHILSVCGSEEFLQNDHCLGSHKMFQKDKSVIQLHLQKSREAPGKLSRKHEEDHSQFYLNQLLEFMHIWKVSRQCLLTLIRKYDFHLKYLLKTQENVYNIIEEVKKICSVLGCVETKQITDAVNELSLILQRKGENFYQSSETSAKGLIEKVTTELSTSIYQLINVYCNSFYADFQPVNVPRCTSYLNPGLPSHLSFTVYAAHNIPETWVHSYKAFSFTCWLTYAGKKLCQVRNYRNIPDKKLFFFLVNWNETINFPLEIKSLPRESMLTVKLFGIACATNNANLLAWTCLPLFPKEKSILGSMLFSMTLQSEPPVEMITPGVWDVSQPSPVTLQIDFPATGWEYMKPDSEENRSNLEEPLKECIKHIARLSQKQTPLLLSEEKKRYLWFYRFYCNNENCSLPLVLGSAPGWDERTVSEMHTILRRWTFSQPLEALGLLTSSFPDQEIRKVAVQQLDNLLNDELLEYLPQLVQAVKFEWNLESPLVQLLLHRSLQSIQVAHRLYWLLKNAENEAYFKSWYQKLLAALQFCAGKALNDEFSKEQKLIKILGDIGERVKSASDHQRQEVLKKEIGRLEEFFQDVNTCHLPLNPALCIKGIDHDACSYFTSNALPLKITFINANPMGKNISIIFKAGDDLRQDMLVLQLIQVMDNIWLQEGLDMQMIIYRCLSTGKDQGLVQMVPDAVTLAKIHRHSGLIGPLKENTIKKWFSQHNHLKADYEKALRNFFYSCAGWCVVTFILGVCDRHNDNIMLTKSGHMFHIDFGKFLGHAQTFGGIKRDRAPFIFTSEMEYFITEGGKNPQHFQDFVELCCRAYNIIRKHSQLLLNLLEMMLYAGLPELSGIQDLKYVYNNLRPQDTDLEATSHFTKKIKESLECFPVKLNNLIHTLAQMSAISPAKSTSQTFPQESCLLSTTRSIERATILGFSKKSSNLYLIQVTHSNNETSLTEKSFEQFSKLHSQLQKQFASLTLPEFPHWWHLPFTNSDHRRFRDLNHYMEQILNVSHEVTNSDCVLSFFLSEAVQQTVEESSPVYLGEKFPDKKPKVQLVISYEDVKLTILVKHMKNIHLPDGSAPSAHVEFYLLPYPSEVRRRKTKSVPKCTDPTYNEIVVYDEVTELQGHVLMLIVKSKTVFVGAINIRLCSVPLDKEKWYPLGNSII
Kind of test: Selectivity interaction (KinomeScan (DiscoverX)) EUB0000229b PIK3C2G. The settings on record: at 10 µM.

Mitogen-activated protein kinase 9, sequence (P45984 whole entry, looked up): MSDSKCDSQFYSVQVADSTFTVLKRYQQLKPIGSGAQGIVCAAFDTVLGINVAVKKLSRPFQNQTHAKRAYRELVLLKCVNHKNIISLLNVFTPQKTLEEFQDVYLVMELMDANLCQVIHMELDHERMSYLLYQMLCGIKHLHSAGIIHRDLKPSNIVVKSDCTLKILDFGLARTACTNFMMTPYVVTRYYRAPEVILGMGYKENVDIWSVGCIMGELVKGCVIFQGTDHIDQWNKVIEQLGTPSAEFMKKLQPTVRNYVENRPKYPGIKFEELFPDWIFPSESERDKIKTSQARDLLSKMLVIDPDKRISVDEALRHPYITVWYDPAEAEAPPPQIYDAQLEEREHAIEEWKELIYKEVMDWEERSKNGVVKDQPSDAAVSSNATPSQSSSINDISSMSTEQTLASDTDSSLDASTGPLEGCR

As to `CC[C@@H]1[C@H](F)C(=O)N[C@@H]1COc1nccc2cc(C(N)=O)c(OC)cc12` [ZIMLOVISERTIB], in test [1], the % of inhibition is -10%.
The compound `CN(C)C/C=C/C(=O)Nc1ccc(C(=O)N2CCCC(Nc3ncc(Cl)c(-c4c[nH]c5ccccc45)n3)C2)cc1` (stereo not drawn) had a % of control in test [2] of 93%.
`COc1cc(N(C)c2ccnc3ccc(C(F)(F)F)cc23)cc(OC)c1OC` had a % binding in test [3] of 75%.
